Molecules are shown by their SMILES.

Assay [1] relates to chromosomes of plasma cells. The experiment in a line: Incorporation of labeled ctDNA into chromosomes with NHEJ, PARP and integrase inhibitors (Example 6). The assay is classed as cell-based, human. Conditions: DNA-PKCS inhibitor I 200 nM; KU-55933; raltegravir 30 nM; NU1025 200 nM. The method, then: For further evaluation, chromosome spreads from MM and lung cancer cell lines were cultured with covalently labeled ctDNA obtained from patients with MM.

Assay [2] has as its system MM (MM1S), PC (ASPC-1), and CC (HCT 116) cell lines. The experiment in a line: ctDNA integration with NHEJ, alternative pathway and transposase inhibitors (Example 25). The assay is classed as cell-based, human. As to conditions: 2 hours pretreatment; DNA-PKCS inhibitor I 30 μM, KU-55933 10 μM, raltegravir 100 nM; compared to control or NU1025 200 μM. How it is done:
About 10^6 MM1s, PANC1 and HCT-116 cells were treated for 2 hours with inhibitors of the non-homologous end join (NHEJ) repair system such as KU-55933 (ATM inhibitor, 10 μM) and DNA-PKCS inhibitor I, (30 μM), alternative repair pathway such as a poly ADP ribose polymerase inhibitor NU1025 (PARP, 200 μM) and an integrase/transposase inhibitor (raltegravir, 100 nM). After treatment with inhibitors, rhodamine-labeled ctDNA construct was added to the culture media for 24 hours. Cells were then arrested, and chromosome spreads were obtained as noted above. Integration site counts per cell were obtained after counting a minimum of 20 metaphases (FIG. 32).
Transposable elements (TEs) can play an important role in the mechanism of HGT observed in prokaryotes and few cases of eukaryotes (insects and plants). Thus, it was investigated whether inhibition of transposable elements could reduce or prevent ctDNA integration into chromatids. To that end, cells were treated for 2 hours with raltegravir, a transposase inhibitor, before the addition of ctDNA into culture media. For controls, inhibitors of ATM (KU-55933), DNPkc (DNA-PKCS inhibitor I) and PARP (NU1025) were used. […]

`Cc1nc2c(O)cccc2c(=O)[nH]1` [NU1025]: the “Incorporation of labeled ctDNA into chromosomes” value (shortened to “Incorporation”) in assay [1] is recorded as “less so”.
Regarding `O=c1cc(-c2cccc3c2Sc2ccccc2S3)oc(N2CCOCC2)c1` [KU-55933], the “Incorporation” value in assay [1] was “reduced significantly”. In addition, the “integration of ctDNA (rhodamine bands into the chromosomes)” value in assay [2] was “significantly reduced”.
On to `Cc1nnc(C(=O)NC(C)(C)c2nc(C(=O)NCc3ccc(F)cc3)c(O)c(=O)n2C)o1` [raltegravir], for which the “Incorporation” value in assay [1] is “reduced significantly”. In assay [2], the “integration of ctDNA (rhodamine bands into the chromosomes)” value was “significantly reduced”.

The values are drawn from patent publication US12453740B2, “Nucleic acids for cell recognition and integration” (Emory University, priority 2018, dated 2025).
